Here are results for two compounds from patent publication US20160297820A1, “DIMERIZER COMPOUND” (AGENCY FOR SCIENCE, TECHNOLOGY AND RESEARCH, priority 2013, published 2016).

Numbering of substitutions follows the chain as printed. Bounds are passed on as bounds.

In one assay the target is T1, SNAP-eGFP and CLIP-eGFP (Homo sapiens, UniProt P16455, A121V/A127T/A154D/C150Q/C62A/E30R/G131K/G131N/G132T/G153L/G153S/K125A/K32I/L33F/M134L/M60I/N157G/N157P/Q115S/Q116H/R128A/R135D/R135S/S151G/S152D/S159E/S159L/Y114E).
T1 construct: host or cells: HEK293
T1 sequence (P16455 1-182 E30R/K32I/L33F/C62A/Q115S/Q116H/K125A/A127T/R128A/G131K/G132T/M134L/R135S/C150Q/S151G/S152D/G153L/A154D/N157G/S159E limits assumed): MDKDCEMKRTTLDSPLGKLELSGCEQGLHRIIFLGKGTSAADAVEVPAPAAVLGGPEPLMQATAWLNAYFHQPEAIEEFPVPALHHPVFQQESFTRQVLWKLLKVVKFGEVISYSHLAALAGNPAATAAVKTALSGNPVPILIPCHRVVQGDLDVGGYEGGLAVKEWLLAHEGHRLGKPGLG
T1 sequence (P16455 1-182 E30R/K32I/L33F/M60I/C62A/Y114E/Q115S/Q116H/A121V/K125A/A127T/R128A/G131N/G132T/M134L/R135D/C150Q/S151G/S152D/G153S/A154D/N157P/S159L limits assumed): T1 sequence (P16455 1-182 E30R/K32I/L33F/C62A/Q115S/Q116H/K125A/A127T/R128A/G131K/G132T/M134L/R135S/C150Q/S151G/S152D/G153L/A154D/N157G/S159E limits assumed) with M60I, Y114E, A121V, K131N, S135D, L153S, G157P, E159L
The experiment in a line: Dimerization of SNAP-eGFP and CLIP-eGFP in transfected HEK293 cells, western blot against eGFP. It is filed as cell-based. The text has this: Mammalian expression vectors for SNAP-eGFP and CLIP-eGFP were constructed from pSNAPf and pCLIPf (obtained from New England Biolabs of Singapore). eGFP was amplified using primers XhoI eGFP F and NotI eGFP R from pEGFP-NAD. The amplified DNA fragment was digested using XhoI/NotI and cloned into pSNAPf and pCLIPf for C-terminal fused eGFP-SNAP and eGFP-CLIP constructs respectively.
(§1) HEK293 cells were obtained from ATCC and grown in DMEM medium supplemented by 10% FCS and penicillin-streptomycin at 37° C. and 5% carbon dioxide. All experiments performed were carried out in 24 well plates seeded with 1×10^5 cells per well. Transfection was performed with Lipofectamine 2000 (Invitrogen™, Life Technologies of Singapore) as per manufacturer's instructions the day after seeding. Medium was changed the day after transfection.
The dimerizers (or Compounds 1 and 2) were dissolved to 1 mM in DMSO and diluted further with DMSO so all applications were done by adding 4 μl of DMSO with compound 1 dissolved in it to 400 μl of medium for each well. Compound 1 was added at the mentioned concentration two days after transfection and incubated for 3 to 6 hours before the cells were harvested with RIPA Lysis and Extraction buffer (from Thermo Fisher Scientific Inc of Illinois of the United States of America). Compound 2 was added at the mentioned concentration three days after transfection and incubated for a specified duration before the cells were harvested. […]
HEK293 cells were transfected with 250 ng of SNAP-eGFP and CLIP-eGFP. 3 days after transfection, increasing concentrations of 0.1 to 10 μM (0.1 μM, 0.4 μM, 1 μM, 4 μM, and 10 μM) of photocleavable dimerizer (Compound 2) were applied to the cells with fresh medium and the cells were harvested 6 hours after. […] The cleaved samples were equivalent volumes of uncleaved samples subjected to 365 nm illumination for 10 minutes.
In general terms: In western blotting, separated proteins are transferred to a membrane and probed.

In assay [1] the test system is SNAP-Gal4 and CLIP-AD2 (firefly luciferase under the control of 9 UAS elements). The experiment in a line: Luciferase up-regulation through dimerization of SNAP-Gal4 and CLIP-AD2 in transfected HEK293 cells (pGL4.35 reporter). As to conditions: for luciferase expression after UV illumination: 20 μM, 96-well plate, 365 nm UV for 10 minutes just after application, harvested one day after, FIG. 8d; for luciferase production: HEK293, harvested 24 hours after treatment, FIG. 8a. It is filed as cell-based.
From the text: pGL4.35 (obtained from Promega of Singapore) contains firefly luciferase under the control of 9 UAS elements. SNAP was amplified from pSNAPf with SNAP-XhoI-C and SNAP NheI N; CLIP from pCLIPf with NheI NLC CLIP and SNAP-XhoI-C; Gal4 from pCMV-Gal4 with Gal4 HisTag BamHI and SNAP-Gal4 N; activation domains (AD2) from pHet-Act2-1 with SNAP-p65AD-HSF1AD N and p65 AD-HSF1AD HisTag BamHI. The individual PCR reactions were combined by SOEing PCR (Splicing by Overlap Extension) to make SNAP-Gal4 and CLIP-AD2 PCR products. These were then cloned into peGFP-C1 with the NheI and BamHI sites, removing eGFP in the process. Both constructs contained the nuclear localizing signal.
as §1
The dimerizers (or Compounds 1 and 2) were dissolved to 1 mM in DMSO and diluted further with DMSO so all applications were done by adding 4 μl of DMSO with compound 1 dissolved in it to 400 μl of medium for each well. Compound 1 was added at the mentioned concentration two days after transfection and incubated for 3 to 6 hours before the cells were harvested with RIPA Lysis and Extraction buffer (from Thermo Fisher Scientific Inc of Illinois of the United States of America). Compound 2 was added at the mentioned concentration three days after transfection and incubated for a specified duration before the cells were harvested.
HEK293 cells (in a 24-well plate) transfected with 400 ng pSNAP-Gal4 (Gal4 is a DNA-binding domain fused to SNAP), 200 ng pCLIP-AD2 (AD2 is a transcriptional activator fused to CLIP) and 100 ng pGL4.35 (GL4.35 is a luciferase reporter construct containing nine Gal4 binding motif for gene activation) were treated with stated amounts of either Compound 1 or 2 in 400 μl medium 1 day after transfection. Cells were harvested 24 hours after treatment and the levels of luciferase measured. FIG. 7 is a schematic diagram showing the up-regulation of luciferase.
Here, the cells were transfected as above and 8 μM of compound 2 was added to the cells one day after transfection. One day after, the cells were either illuminated with a fluorescent lamp or with a 365 nm UV lamp for 5 minutes. 0, 6, 24 or 48 hours later, the cells were harvested and the levels of luciferase measured.
The cells were transfected as above and 10 μM of compound 2 was added to the cells one day after transfection. One day after, the cells were illuminated with a 365 nm UV lamp for 10 minutes. […] Experiments were carried out in triplicates. The purpose of this experiment is to use a slightly higher amount of compound 2 and a longer UV irradiation time to optimize the linker cleavage.
HEK293 cells were transfected with the same ratio of plasmids in a 96-well plate and treated with 2% DMSO, 20 μM compound 1 or 20 μM compound 2 one day after transfection. Just after application, some of the cells were illuminated with 365 nm UV for 10 minutes. One day after, the cells were harvested.

Consider `COc1cc(C(C)NC(=O)CCCC(=O)NCc2ccc(COc3nc(N)nc4[nH]cnc34)cc2)c([N+](=O)[O-])cc1OCCCC(=O)NCCOCCOCCOCCNC(=O)NCc1ccc(COc2nccc(N)n2)cc1` (stereo not drawn) [Compound 2], for which the “reversal of dimerization by 365 nm illumination” value at SNAP-eGFP and CLIP-eGFP (365 nm illumination for 10 minutes, FIG. 6d) was “partially reversing dimerization”. Moreover, at SNAP-eGFP and CLIP-eGFP (HEK293, 0.1 to 10 μM, harvested 6 hours after, FIG. 6d), the “induction of dimerization of SNAP-eGFP and CLIP-eGFP” value is “could induce dimerization at lower concentrations than compound 1”. Further, the “expression of luciferase, UV illumination compared to fluorescent lamp” value in assay [1] (8 μM, 365 nm UV lamp for 5 minutes, harvested 0, 6, 24 or 48 hours later, FIG. 8b) is “lower expression of luciferase”. Also, in assay [1], the “luciferase expression after UV illumination” value is “decreased luciferase expression” and the luciferase production result was “luciferase was produced”. For the same compound, in assay [1] (FIG. 8b to FIG. 8d), the “luciferase upregulation after exposure to UV illumination” value is listed as “less effective”.

`Nc1ccnc(OCc2ccc(CNC(=O)NCCOCCOCCOCCNC(=O)CCCC(=O)NCc3ccc(COc4nc(N)nc5[nH]cnc45)cc3)cc2)n1` [Compound 1]: on SNAP-eGFP and CLIP-eGFP (HEK293, 5 μM, FIG. 6c), the “stability of the dimer in the cell (no change in dimerization)” value is listed as no less than 3 days, the “time after application to maximal dimerization” value is no more than 24 h and the “time after application to near saturation of dimerization” value came to 3 h. The “dimerization of SNAP-eGFP and CLIP-eGFP (specificity)” value on SNAP-eGFP and CLIP-eGFP (HEK293, SNAP-eGFP and CLIP-eGFP together vs either alone, 0, 5 or 20 μM, harvested 6 hours after, FIG. 6a) is “heterodimerization occurred specifically”. In addition, on SNAP-eGFP and CLIP-eGFP (HEK293 cells in culture, applied with DMSO), the cell penetration entry was “could penetrate cells in culture”. At SNAP-eGFP and CLIP-eGFP (HEK cells, 0.1 nM to 10,000 nM applied, harvested 3 hours after, FIG. 6b), the “concentration at which dimerization occurs” value was 400 nM. The “dose dependence of heterodimerization” value at SNAP-eGFP and CLIP-eGFP (HEK cells, 0.1 nM to 10,000 nM, harvested 3 hours after, FIG. 6b) is on record as “dose-dependent manner”. Also, in assay [1], the “luciferase expression after UV illumination” value is on record as “did not” and the luciferase production result is reported as “produced in a dose-dependent fashion”.
